The compounds below were run against glucosylceramide synthase (GCS) (Homo sapiens (Human), UniProt Q16739) (assay: UDP-Glo glucosylceramide synthase biochemical assay). Details: endogenous GCS in Golgi preparations isolated from human A375 malignant melanoma skin cells; UDP detection by luminescence.
Description: A UDP-Glo™ glucosylceramide synthase biochemical assay was utilized to evaluate the effect of test compounds on the activity of endogenous levels of GCS enzyme contained within Golgi preparations isolated from human A375 malignant melanoma skin cells. The UDP-Glo™ glucosylceramide synthase assay uses UDP-Glucose as a nucleotide-glycosyl donor and ceramide as substrate acceptor molecules. In the reaction, glucosylceramide synthase (GCS) transfers glucose from UDP-Glucose to ceramide. Glucosylceramide and UDP are released as products.
Using Promega's UDP-Glo™ Glycosyltransferase assay kit (Promega Corporation, Madison, WI, USA (Promega)), GCS activity was indirectly measured by detecting the amount of UDP produced. An aliquot of GCS enzyme (1.5 μg crude golgi preparation, total protein) and titrated test compound were aliquoted to each well and incubated for 30 minutes at room temperature. […] An equivalent volume of substrate mixture was then added to each well. Following a 20 h incubation at room temperature to allow for GCS turnover of substrate, an equal volume of UDP detection reagent (Promega) was added to each well and incubated for an additional 75 minutes at room temperature to simultaneously convert the accumulated UDP product into ATP and generate light in a luciferase reaction. The generated light was detected using a luminometer. […] luminescence values (RLUs) were normalized to mean “min” and “max” effects, as determined on each plate. “Min” was defined as the mean of the values of the wells treated with vehicle (DMSO) and which represent 0% inhibition; “max” was defined as the mean of the values of the wells treated with a reference inhibitor and which represent the 100% effect. Values for % Emax and EC50 were determined by best-fitting the normalized data to a curve in Activity Base along a four-parameter logistic nonlinear regression (4PL) model (based on the Levenberg-Marquardt algorithm and defined by the equation below): […]
where: n is 4PMin (bottom of the curve); m is 4PMax (top of the curve); i is IP (inflection point of curve); and p is slope. See Levenberg, K., “A Method for the Solution of Certain Problems in Least Squares”, Quart. Appl. Math. 2, (1944), pp 164-168 and Marquardt, D., “An Algorithm for Least Squares Estimation on Nonlinear Parameters”, SIAM J. Appl. Math 11, (1963) pp 431-441.

Sequence of glucosylceramide synthase (GCS) (Q16739 whole entry): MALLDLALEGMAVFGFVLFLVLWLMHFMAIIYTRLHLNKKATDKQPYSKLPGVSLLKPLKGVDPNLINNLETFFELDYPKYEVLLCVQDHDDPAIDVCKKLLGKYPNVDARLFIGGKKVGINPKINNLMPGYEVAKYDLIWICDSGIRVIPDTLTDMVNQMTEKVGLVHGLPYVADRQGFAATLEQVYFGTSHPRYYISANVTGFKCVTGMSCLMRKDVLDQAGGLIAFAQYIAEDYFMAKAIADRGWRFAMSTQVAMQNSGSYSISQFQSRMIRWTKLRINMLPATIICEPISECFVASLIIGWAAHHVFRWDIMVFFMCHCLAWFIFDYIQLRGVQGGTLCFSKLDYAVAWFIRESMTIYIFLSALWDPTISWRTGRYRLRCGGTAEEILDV

| SMILES | IC50 [µM] |
| --- | --- |
| N#Cc1cnc(C2CC2)nc1OCC1CCCN1c1ccccc1 (centres unmarked) [Compound 59, 2-cyclopropyl-4-((1-phenylpyrrolidin-2-yl)methoxy)pyrimidine-5-carbonitrile] | 0.363 |
| C=Cc1cc(N2CC(c3nc4ccccc4n3C)C2)nc(C)n1 [Compound 122, 1-methyl-2-(1-(2-methyl-6-vinylpyrimidin-4-yl)azetidin-3-yl)-1H-benzo[d]imidazole] | 3.43 |
| N#Cc1cnc(C2CC2)nc1OC[C@H]1CCN(c2ccc(-c3ccon3)cc2)C1 [Compound 19, (S)-2-cyclopropyl-4-((1-(4-(isoxazol-3-yl)phenyl)pyrrolidin-3-yl)methoxy)pyrimidine-5-carbonitrile] | 0.037 |
| N#Cc1cnc(C2CC2)nc1N1CCC(O)(c2cccc(C(F)(F)F)c2)CC1 [Compound 73, 2-cyclopropyl-4-(4-hydroxy-4-(3-(trifluoromethyl)phenyl)piperidin-1-yl)pyrimidine-5-carbonitrile] | 1.11 |
| CNC(=O)C12CN(c3nc(C4CC4)ncc3C#N)CC1C(c1ccc(C)cc1)=NO2 (centres unmarked) [Compound 85, 5-(5-cyano-2-cyclopropylpyrimidin-4-yl)-N-methyl-3-(p-tolyl)-3a,4,5,6-tetrahydro-6aH-pyrrolo[3,4-d]isoxazole-6a-carboxamide] | 0.168 |
| CCNC(=O)[C@]12CN(c3nc(C4CC4)ncc3C#N)C[C@H]1C(Oc1ccccc1)=NO2 [Compound 77, (3aR)-5-(5-cyano-2-cyclopropylpyrimidin-4-yl)-N-ethyl-3-phenoxy-3a,4,5,6-tetrahydro-6aH-pyrrolo[3,4-b]isoxazole-6a-carboxamide] | 0.655 |
| N#Cc1cnc(C2CC2)nc1OC[C@H]1CCN(c2ccc(-c3ncco3)cc2)C1 [Compound 11, (S)-2-cyclopropyl-4-((1-(4-(oxazol-2-yl)phenyl)pyrrolidin-3-yl)methoxy)pyrimidine-5-carbonitrile] | 0.035 |
| CC(C)c1nc(-c2cccnc2N2CCN(c3nc(C4CC4)ncc3C#N)CC2)no1 [Compound 93, 2-cyclopropyl-4-(4-(3-(5-isopropyl-1,2,4-oxadiazol-3-yl)pyridin-2-yl)piperazin-1-yl)pyrimidine-5-carbonitrile] | 0.048 |
| OCc1cnc(C2CC2)nc1OCC1CCN(c2ccc(C(F)(F)F)nc2)CC1 [Compound 5, (2-cyclopropyl-4-((1-(6-(trifluoromethyl)pyridin-3-yl)piperidin-4-yl)methoxy)pyrimidin-5-yl)methanol] | 3.41 |
| COc1ccc(N2CCC(COc3nc(C4CC4)ncc3C#N)C2)cc1 (centres unmarked) [Compound 107, 2-cyclopropyl-4-((1-(4-methoxyphenyl)pyrrolidin-3-yl)methoxy)pyrimidine-5-carbonitrile] | 0.067 |
| N#Cc1cnc(C2CC2)nc1OC[C@H]1CCN(c2ccc(C3CC3)nc2)C1 [Compound 24, (S)-2-cyclopropyl-4-((1-(6-cyclopropylpyridin-3-yl)pyrrolidin-3-yl)methoxy)pyrimidine-5-carbonitrile] | 0.377 |
| N#Cc1cnc(C2CC2)nc1OC[C@H]1CCN(c2cnc(-c3ccccc3)o2)C1 [Compound 8, (S)-2-cyclopropyl-4-((1-(2-phenyloxazol-5-yl)pyrrolidin-3-yl)methoxy)pyrimidine-5-carbonitrile] | 0.889 |
| Cc1cnc(N2CC[C@H](COc3nc(C4CC4)ncc3C#N)C2)c(C)c1 [Compound 17, (S)-2-cyclopropyl-4-((1-(3,5-dimethylpyridin-2-yl)pyrrolidin-3-yl)methoxy)pyrimidine-5-carbonitrile] | 1.02 |
| N#Cc1cnc(C2CC2)nc1OC[C@@H]1CCN(c2ccc(C(F)(F)F)nc2)C1 [Compound 45, (R)-2-cyclopropyl-4-((1-(6-(trifluoromethyl)pyridin-3-yl)pyrrolidin-3-yl)methoxy)pyrimidine-5-carbonitrile] | 0.255 |
| COc1ccc(C)nc1N1CC[C@H](COc2nc(C3CC3)ncc2C#N)C1 [Compound 28, (S)-2-cyclopropyl-4-((1-(3-methoxy-6-methylpyridin-2-yl)pyrrolidin-3-yl)methoxy)pyrimidine-5-carbonitrile] | 4.52 |
| N#Cc1cnc(C2CC2)nc1N1CCC(N2CCN(Cc3ccc(F)cc3)S2(=O)=O)CC1 [Compound 78, 2-cyclopropyl-4-(4-(5-(4-fluorobenzyl)-1,1-dioxido-1,2,5-thiadiazolidin-2-yl)piperidin-1-yl)pyrimidine-5-carbonitrile] | 1.8 |

| SMILES | IC50 [µM] |
| --- | --- |
| N#Cc1cnc(C2CC2)nc1NC1CCN(Cc2ccccc2)C1c1ccccc1 (centres unmarked) [Compound 82, 4-((1-benzyl-2-phenylpyrrolidin-3-yl)amino)-2-cyclopropylpyrimidine-5-carbonitrile] | 0.77 |
| N#Cc1cnc(C2CC2)nc1N1CCc2nc[nH]c2C1c1cccc(F)c1 (centres unmarked) [Compound 66, 2-cyclopropyl-4-(4-(3-fluorophenyl)-3,4,6,7-tetrahydro-5H-imidazo[4,5-c]pyridin-5-yl)pyrimidine-5-carbonitrile] | 2.04 |
| N#Cc1cnc(C2CC2)nc1N1CCC2(CC1)NC(=O)Nc1ccccc12 [Compound 75, 2-cyclopropyl-4-(2′-oxo-2′,3′-dihydro-1′H-spiro[piperidine-4,4′-quinazolin]-1-yl)pyrimidine-5-carbonitrile] | 1.09 |
| N#Cc1cnc(C2CC2)nc1N1CC2CCCC1CN(Cc1ccccc1)C2 (centres unmarked) [Compound 72, 4-(3-benzyl-3,9-diazabicyclo[3.3.2]decan-9-yl)-2-cyclopropylpyrimidine-5-carbonitrile] | 1.86 |
| CCOc1ccc(N2CC[C@H](COc3nc(C4CC4)ncc3C#N)C2)cn1 [Compound 25, (S)-2-cyclopropyl-4-((1-(6-ethoxypyridin-3-yl)pyrrolidin-3-yl)methoxy)pyrimidine-5-carbonitrile] | 0.231 |
| N#Cc1cnc(C2CC2)nc1OC[C@H]1CCN(c2ccc(-c3ccno3)cc2)C1 [Compound 18, (S)-2-cyclopropyl-4-((1-(4-(isoxazol-5-yl)phenyl)pyrrolidin-3-yl)methoxy)pyrimidine-5-carbonitrile] | 0.067 |
| Cc1nc(N2CC(c3nc4ccccc4n3C)C2)cc(N2CC(c3ccccc3)CC2=O)n1 (centres unmarked) [Compound 119, 1-(2-methyl-6-(3-(1-methyl-1H-benzo[d]imidazol-2-yl)azetidin-1-yl)pyrimidin-4-yl)-4-phenylpyrrolidin-2-one] | 3.03 |
| N#Cc1cnc(C2CC2)nc1NC1CCc2ccc(O)cc21 (centres unmarked) [Compound 91, 2-cyclopropyl-4-((6-hydroxy-2,3-dihydro-1H-inden-1-yl)amino)pyrimidine-5-carbonitrile] | 0.379 |
| N#Cc1cnc(C2CC2)nc1OC[C@H]1CCN(c2csc3c(Cl)ncnc23)C1 [Compound 39, (S)-4-((1-(4-chlorothieno[3,2-d]pyrimidin-7-yl)pyrrolidin-3-yl)methoxy)-2-cyclopropylpyrimidine-5-carbonitrile] | 3.99 |
| COc1ccc(N2CCC(Oc3nc(C4CC4)ncc3C#N)C2)cc1 (centres unmarked) [Compound 105, 2-cyclopropyl-4-((1-(4-methoxyphenyl)pyrrolidin-3-yl)oxy)pyrimidine-5-carbonitrile] | 0.321 |
| N#Cc1ccc(N2CC[C@H](COc3nc(C4CC4)ncc3C#N)C2)cc1F [Compound 35, (S)-4-((1-(4-cyano-3-fluorophenyl)pyrrolidin-3-yl)methoxy)-2-cyclopropylpyrimidine-5-carbonitirle] | 0.458 |
| COC(=O)c1cc(N2CC(c3nc4ccccc4n3C)C2)nc(C)n1 [Compound 121, methyl 2-methyl-6-(3-(1-methyl-1H-benzo[d]imidazol-2-yl)azetidin-1-yl)pyrimidine-4-carboxylate] | 2.82 |
| N#Cc1cnc(C2CC2)nc1N1CCOCC1c1ccccc1F (centres unmarked) [Compound 68, 2-cyclopropyl-4-(3-(2-fluorophenyl)morpholino)pyrimidine-5-carbonitrile] | 0.546 |
| CC1(COc2nc(C3CC3)ncc2C#N)CCN(c2ncc(C(F)(F)F)cn2)C1 (centres unmarked) [Compound 52, 2-cyclopropyl-4-((3-methyl-1-(5-(trifluoromethyl)pyrimidin-2-yl)pyrrolidin-3-yl)methoxy)pyrimidine-5-carbonitrile] | 0.762 |
| CC1CN(c2ncc(C(F)(F)F)cn2)CC1COc1nc(C2CC2)ncc1C#N (centres unmarked) [Compound 53, 2-cyclopropyl-4-((4-methyl-1-(5-(trifluoromethyl)pyrimidin-2-yl)pyrrolidin-3-yl)methoxy)pyrimidine-5-carbonitrile] | 0.148 |
| CNC(=O)[C@]12CN(c3nc(C4CC4)ncc3C#N)C[C@H]1C(c1ccc(C)cc1)=NO2 [Compound 67, (3aS,6aR)-5-(5-cyano-2-cyclopropylpyrimidin-4-yl)-N-methyl-3-(p-tolyl)-3a,4,5,6-tetrahydro-6aH-pyrrolo[3,4-d]isoxazole-6a-carboxamide] | 0.207 |

Reference: US20250188057A1, “NON-AROMATIC CYCLIC-PYRIMIDINE ANALOGS AS GLUCOSYLCERAMIDE SYNTHASE INHIBITORS” (Merck Sharp & Dohme LLC, priority 2022, published 2025)
